Assay results as given in patent publication US6864217B2, “Herbicidal compositions with substituted phenylsulfonylureas for controlling weeds in rice” (Hoechst Schering AgrEvo GmbH, priority 1998, dated 2005).

Assays:
[1] = system: Cyperus iria; experiment: Table 23 field trial, treatment: 4-6 leaf stage: weed control; type: in vivo; details: 36 days after application
From the text: (§1) Field trial: Treatment: 4-6 leaf stage, evaluation 36 days after the application.

[2] = system: Oryza sativa; experiment: Table 23 field trial, treatment: 4-6 leaf stage: rice damage; type: in vivo; details: 36 days after application
From the text: as §1

[3] = system: Cucumis dipsaceus; experiment: Table 1: weed control by A1*), safener C3-1) and combination; type: in vivo
Method: (§8) The examples mentioned below were carried out in the greenhouse, and in some instances, in field trials.

[4] = system: Oryza sativa (paddy rice); experiment: Table 1: damage to paddy rice; type: in vivo
Method: as §8

[5] = system: Sagittaria pygmaea; experiment: Table 13 greenhouse trial, treatment at the 5-6 leaf stage: weed control; type: in vivo; details: 20 days after application
Method: (§2) Seeds or rhizome pieces of mono- and dicotyledonous weed plants are placed into sandy loam soil in plastic pots, covered with soil and grown in a greenhouse under good growth conditions (temperature, atmospheric humidity, water supply). Weeds which are encountered in the cultivation of rice are cultivated in pots in which the water level is up to 2 cm over the soil surface. Three weeks after sowing, the test plants are treated at the three-leaf stage. The active compound combinations according to the invention, formulated as wettable powders or emulsion concentrates, and, in parallel experiments, the correspondingly formulated individual active compounds are sprayed onto the green parts of the plants at different dosages using an amount of water of 300 to 600 l/ha (converted), and, after about 3 to 4 weeks of the test plants in the greenhouse under optimum growth conditions (temperature, atmospheric humidity, water supply), the effect of the preparations is evaluated visually in comparison to untreated controls. In the case of rice or weeds which are encountered in the cultivation of rice, the active compounds are also added directly to the water for irrigation (application analogous to the so-called granules application) or sprayed onto plants and added to the water for irrigation. The experiments were designed with several, up to five, repetitions. The herbicidal compositions according to the invention also have good herbicidal post-emergence activity against a broad spectrum of economically important weed grasses and broad-leaved weeds.
(§3) Greenhouse trial: Treatment at the 5-6 leaf stage, evaluation 20 days after the application.

[6] = system: Oryza sativa; experiment: Table 13 greenhouse trial, treatment at the 5-6 leaf stage: rice damage; type: in vivo; details: 20 days after application
Method: as §2, §3

[7] = system: Echinochloa crusgalli; experiment: Table 4 field trial: weed control; type: in vivo
Method: as §8

[8] = system: Echinochloa crusgalli; experiment: Table 18 field trial, treatment at the 1-2 leaf stage: weed control; type: in vivo; details: 14 days after application
From the text: (§4) Field trial: Treatment at the 1-2 leaf stage, evaluation 14 days after the application.

[9] = system: Oryza sativa; experiment: Table 18 field trial, treatment at the 1-2 leaf stage: rice damage; type: in vivo; details: 14 days after application
From the text: as §4

[10] = system: Oryza sativa; experiment: Table 4 field trial: rice damage
Method: as §8

[11] = system: Sagittaria pygmaea; experiment: Table 22 field trial, treatment: 1-2 leaf stage: weed control; type: in vivo; details: 28 days after application
From the text: Field trial: Treatment: 1-2 leaf stage, evaluation 28 days after the application.

[12] = system: ECHCO; experiment: Table 2 field trial, treatment at the 2-3 leaf stage weed grasses: weed control; type: in vivo, Echinochloa colona; details: 28 days after application
Method: as §8

[13] = system: Eleusine indica; experiment: as above; type: in vivo; details: 28 days after application
Method: as §8

[14] = system: Leptochloa filiformis; experiment: Table 2a field trial, treatment at the 2-3 leaf stage weed grasses: weed control; type: in vivo; details: 28 days after application
Method: as §8

[15] = system: Cyperus irria; experiment: Table 3 field trial, treatment at the 2 leaf stage weed grasses: weed control; type: in vivo; details: 28 days after application
Method: as §8

[16] = system: Oryza sativa; experiment: Table 2 field trial, treatment at the 1-2 leaf stage rice: rice damage; details: 28 days after application
Method: as §8

[17] = system: Oryza sativa; experiment: Table 2a field trial, treatment at the 1-2 leaf stage rice: rice damage; details: 28 days after application
Method: as §8

[18] = system: Oryza sativa; experiment: Table 3 field trial, treatment at the 4-5 leaf stage (seed rice): rice damage; details: 28 days after application
Method: as §8

[19] = system: Cyperus serotinus; experiment: Table 21 field trial, treatment at the 2 leaf stage: weed control; type: in vivo; details: 28 days after application
From the text: (§5) Field trial: Treatment at the 2 leaf stage, evaluation 28 days after the application.

[20] = system: Oryza sativa; experiment: Table 21 field trial, treatment at the 2 leaf stage: rice damage; type: in vivo
From the text: as §5

[21] = system: Echinochloa crusgalli; experiment: Table 9 greenhouse trial, treatment at the 1-2 leaf stage: weed control; type: in vivo; details: 22 days after application
Method: as §2
(§6) Greenhouse trial: Treatment at the 1-2 leaf stage, evaluation 22 days after the application.

[22] = system: Oryza sativa; experiment: Table 9 greenhouse trial, treatment at the 1-2 leaf stage: rice damage; type: in vivo; details: 22 days after application
Method: as §2, §6

[23] = system: Cyperus serotinus; experiment: Table 19 field trial, treatment at the 2 leaf stage: weed control; type: in vivo; details: 14 days after application
From the text: (§7) Field trial: Treatment at the 2 leaf stage, evaluation 14 days after the application.

[24] = system: Oryza sativa; experiment: Table 19 field trial, treatment at the 2 leaf stage: rice damage; type: in vivo; details: 14 days after application
From the text: as §7

[25] = system: Echinochloa crusgalli; experiment: Table 5 field trial, treatment at the 2-4 leaf stage rice: weed control; type: in vivo; details: evaluation after 28 days
Method: as §8

[26] = system: Oryza sativa; experiment: Table 5 field trial, treatment at the 2-4 leaf stage rice: rice damage; type: in vivo; details: evaluation after 28 days
Method: as §8

CC(C)N1C(=O)c2ccccc2NS1(=O)=O [B39), 3-isopropyl-1H-2,1,3-benzothiadiazin-4(3H)-one-2,2-dioxide]
CYPIR % control ([1]; 250 g of ai/ha): 42% | CYPIR % control ([1]; 400 g of ai/ha): 78% | CYPIR % control ([1]; 800 g of ai/ha): 97% | ORYSW % damage ([2]; 250 g of ai/ha): 0% | ORYSW % damage ([2]; 400 g of ai/ha): 0% | ORYSW % damage ([2]; 800 g of ai/ha): 3%

CCOC(=O)C1=NOC(c2ccccc2)(c2ccccc2)C1 [C3-1), ethyl 5,5-diphenyl-2-isoxazoline-3-carboxylate]
CUMDI % control ([3]; 15 g of ai/ha): 0% | CUMDI % control ([3]; 30 g of ai/ha): 0% | CUMDI % control ([3]; 60 g of ai/ha): 0% | ORYSW % damage ([4]; 15 g of ai/ha): 0% | ORYSW % damage ([4]; 30 g of ai/ha): 0% | ORYSW % damage ([4]; 60 g of ai/ha): 0%

CCN(C(=O)n1nnn(-c2ccccc2Cl)c1=O)C1CCCCC1 [B17), 4-(2-chlorophenyl)-5-oxo-4,5-dihydro-tetrazole-1-carboxylic acid cyclohexyl-ethyl-amide]
SAGPY % control ([5]; 50 g of ai/ha): 0% | SAGPY % control ([5]; 100 g of ai/ha): 40% | SAGPY % control ([5]; 200 g of ai/ha): 80% | ORYSW % damage ([6]; 50 g of ai/ha): 0% | ORYSW % damage ([6]; 100 g of ai/ha): 0% | ORYSW % damage ([6]; 200 g of ai/ha): 0%

C[C@@H](Oc1ccc(Oc2nc3ccc(Cl)cc3o2)cc1)C(=O)O [B20), (R)-2-[4-(6-chloro-1,3-benzoxazol-2-yloxy)phenoxy]-propionic acid]
ECHCG % control ([7]; 10 g of ai/ha): 0% | ECHCG % control ([7]; 20 g of ai/ha): 0% | ECHCG % control ([8]; 30 g of ai/ha): 75% | ORYSW % damage ([9]; 30 g of ai/ha): 0% | ORYSW % damage ([10]; 10 g of ai/ha): 0% | ORYSW % damage ([10]; 20 g of ai/ha): 0%

CN(C(=O)COc1nc2ccccc2s1)c1ccccc1 [B5), 2-(2-benzothiazolyloxy)-N-methyl-N-phenylacetamide]
SAGPY % control ([11]; 600 g of ai/ha): 0% | SAGPY % control ([11]; 1200 g of ai/ha): 0% | SAGPY % control ([11]; 2400 g of ai/ha): 0%

CCOc1ccccc1OS(=O)(=O)NC(=O)Nc1nc(OC)cc(OC)n1 [B63a), ethoxysulfuron]
ECHCO % control ([12]; 45 g of ai/ha): 0% | ECHCO % control ([12]; 60 g of ai/ha): 0% | ELEIN % control ([13]; 45 g of ai/ha): 0% | ELEIN % control ([13]; 60 g of ai/ha): 0% | LEFFI % control ([14]; 45 g of ai/ha): 0% | LEFFI % control ([14]; 60 g of ai/ha): 0% | CYPIR % control ([15]; 22.5 g of ai/ha): 60% | CYPIR % control ([15]; 45 g of ai/ha): 95% | ECHCG % control ([8]; 5 g of ai/ha): 7% | ECHCG % control ([8]; 10 g of ai/ha): 7% | ORYSW % damage ([9]; 5 g of ai/ha): 7% | ORYSW % damage ([9]; 10 g of ai/ha): 7% | ORYSW % damage ([16]; 45 g of ai/ha): 10% | ORYSW % damage ([16]; 60 g of ai/ha): 10% | ORYSW % damage ([17]; 45 g of ai/ha): 10% | ORYSW % damage ([17]; 60 g of ai/ha): 10% | ORYSW % damage ([18]; 22.5 g of ai/ha): 0% | ORYSW % damage ([18]; 45 g of ai/ha): 0%

CSC(=O)c1c(C(F)F)nc(C(F)(F)F)c(C(=O)SC)c1CC(C)C [B24), S,S′-dimethyl-2-(difluoromethyl)-4-(2-methylpropyl)-6-(trifluoromethyl)-3,5-pyridindicarbothioate]
CYPSE % control ([19]; 60 g of ai/ha): 60% | ORYSW % damage ([20]; in vivo): 6%

COc1cc(OC)nc(Oc2cccc(Oc3nc(OC)cc(OC)n3)c2C(=O)O)n1 [B48), sodium 2,6-bis[(4,6-dimethoxypyrimidin-2-yl)oxy]-benzoate]
ECHCG % control ([21]; 19 g of ai/ha): 15% | ECHCG % control ([21]; 38 g of ai/ha): 30% | ECHCG % control ([21]; 75 g of ai/ha): 40% | ORYSW % damage ([22]; 19 g of ai/ha): 0% | ORYSW % damage ([22]; 38 g of ai/ha): 0% | ORYSW % damage ([22]; 75 g of ai/ha): 5%

C#CCN(C)c1c(C#N)cnn1-c1nn2c(c1Cl)CCCC2 [B33b)]
CYPSE % control ([23]; 100 g of ai/ha): 40% | CYPSE % control ([23]; 200 g of ai/ha): 50% | CYPSE % control ([23]; 400 g of ai/ha): 80% | ORYSW % damage ([24]; 100 g of ai/ha): 6% | ORYSW % damage ([24]; 200 g of ai/ha): 8% | ORYSW % damage ([24]; 400 g of ai/ha): 12%

CC(C)(SC(=O)N1CCCCC1)c1ccccc1 [B9), S-(1-methyl-1-phenylethyl)1-piperidincarbothioate]
CYPSE % control ([19]; 3000 g of ai/ha): 45% | ORYSW % damage ([20]; 3000 g of ai/ha, field trial, 28 days after application): 5%

CC(C)=C1OC(=O)N(c2cc(OC3CCCC3)c(Cl)cc2F)C1=O [B70), 3-(4-chloro-5-cyclopentyloxy-2-fluorophenyl)-5-iso-propylidene-1,3-oxazolidine-2,4-dione]
CYPSE % control ([23]; 150 g of ai/ha): 50% | CYPSE % control ([23]; 450 g of ai/ha): 65% | ORYSW % damage ([24]; 150 g of ai/ha): 0% | ORYSW % damage ([24]; 450 g of ai/ha): 0%

COc1cccc(N(C)C(=S)Oc2cccc(C(C)(C)C)c2)n1 [B12), O-[3-(1,1-dimethylethyl)phenyl](6-methoxy-2-pyridinyl)methylcarbamothioate]
CYPSE % control ([19]; 600 g of ai/ha): 65% | ORYSW % damage ([20]; 600 g of ai/ha, field trial, 28 days after application): 3%

CCC1(CC2(c3cccc(Cl)c3)CO2)C(=O)c2ccccc2C1=O (racemic) [B71), (RS)-2-[2-(3-chlorophenyl)-2,3-epoxypropyl]-2-ethyl-indane-1,3-dione]
CYPSE % control ([19]; 150 g of ai/ha): 55% | ORYSW % damage ([20]; in vivo): 4%

COP(=S)(OC)SCC(=O)N(c1ccc(Cl)cc1)C(C)C [B19), S-[2-[(4-chlorophenyl)(1-methylethyl)amino]-2-oxo-ethyl]O,O-dimethylphosphorodithioate]
ECHCG % control ([25]; 250 g of ai/ha): 30% | ECHCG % control ([25]; 500 g of ai/ha): 40% | ORYSW % damage ([26]; 250 g of ai/ha): 2% | ORYSW % damage ([26]; 500 g of ai/ha): 10%
